According to publication PMC10035904, “Synthesis of novel sulphamethoxazole derivatives and exploration of their anticancer and antimicrobial properties” (PLOS ONE, 2023):

Compound | melting point
Cc1cc(NS(=O)(=O)c2ccc(NCCC(=O)O)cc2)no1 [Compound 2, 3-((4-(N-(5-methylisoxazol-3-yl)sulfamoyl)phenyl)amino)propanoic acid] | 188 to 189 °C
COC(=O)CCNc1ccc(S(=O)(=O)Nc2cc(C)on2)cc1 [Compound 3, Methyl 3-((4-(N-(5-methylisoxazol-3-yl)sulfamoyl)phenyl)amino)propanoate] | 148 to 149 °C
Cc1cc(NS(=O)(=O)c2ccc(N3CCC(=O)NC3=S)cc2)no1 [Compound 6, N-(5-methylisoxazol-3-yl)-4-(4-oxo-2-thioxotetrahydropyrimidin-1(2H)-yl)benzenesulfonamide] | 240 to 241 °C
Cc1cc(NS(=O)(=O)c2ccc(N(CCC(=O)O)C(N)=S)cc2)no1 [Compound 6a, 3-(1-(4-(N-(5-methylisoxazol-3-yl)sulfamoyl)phenyl)thioureido)propanoic acid] | 182 to 183 °C
Cc1cc(NS(=O)(=O)c2ccc(NC=CC(=O)Nc3ccc(S(N)(=O)=O)cc3)cc2)no1 [Compound 7, 3-((4-(N-(5-methylisoxazol-3-yl)sulfamoyl)phenyl)amino)-N-(4-sulfamoylphenyl)propenamide] | 213 to 214 °C
Cc1cc(NS(=O)(=O)c2ccc(NC=CC(=O)Nn3c(C)ccc3C)cc2)no1 [Compound 8, N-(2,5-dimethyl-1H-pyrrol-1-yl)-3-((4-(N-(5-methylisoxazol-3-yl)sulfamoyl)phenyl)amino)propenamide] | 118 to 119 °C
Cc1cc(C)n(C(=O)CCNc2ccc(S(=O)(=O)Nc3cc(C)on3)cc2)n1 [Compound 9, 4-((3-(3,5-Dimethyl-1H-pyrazol-1-yl)-3-oxopropyl)amino)-N-(5-methylisoxazol-3-yl)benzenesulfonamide] | 144 to 145 °C
Cc1cc(NS(=O)(=O)c2ccc(NCCC(=O)NNC(=O)Nc3ccccc3)cc2)no1 [Compound 10, 2-(3-((4-(N-(5-methylisoxazol-3-yl)sulfamoyl)phenyl)amino)propanoyl)-N-phenylhydrazine-1-carboxamide] | 204 to 205 °C
Cc1cc(NS(=O)(=O)c2ccc(NCCC(=O)NNC(=S)Nc3ccccc3)cc2)no1 [Compound 11, 2-(3-((4-(N-(5-methylisoxazol-3-yl)sulfamoyl)phenyl)amino)propanoyl)-N-phenylhydrazine-1-carbothioamide] | 183 to 184 °C

Other lines, results leading:

melting point | Compound
188 to 189 °C | Cc1cc(NS(=O)(=O)c2ccc(NCCc3n[nH]c(=O)n3-c3ccccc3)cc2)no1 [Compound 12, N-(5-methylisoxazol-3-yl)-4-((2-(5-oxo-4-phenyl-4,5-dihydro-1H-1,2,4-triazol-3-yl)ethyl)amino)-benzenesulfonamide]
222 to 223 °C | Cc1cc(NS(=O)(=O)c2ccc(NCCc3n[nH]c(=S)n3-c3ccccc3)cc2)no1 [Compound 13, N-(5-methylisoxazol-3-yl)-4-((2-(4-phenyl-5-thioxo-4,5-dihydro-1H-1,2,4-triazol-3-yl)ethyl)amino)-benzenesulfonamide]
209 to 210 °C | Cc1cc(NS(=O)(=O)c2ccc(NCCC(=O)NN=C3C(=O)Nc4ccccc43)cc2)no1 [Compound 14, N-(5-methylisoxazol-3-yl)-4-((3-oxo-3-(2-(2-oxoindolin-3-ylidene)hydrazineyl)propyl)amino)-benzenesulfonamide]
199 to 200 °C | Cc1cc(NS(=O)(=O)c2ccc(NCCC(=O)NN=Cc3ccccc3)cc2)no1 [Compound 15a, 4-((3-(2-Benzylidenehydrazineyl)-3-oxopropyl)amino)-N-(5-methylisoxazol-3-yl)benzenesulfonamide]
193 to 194 °C | Cc1cc(NS(=O)(=O)c2ccc(NCCC(=O)NN=Cc3ccccc3O)cc2)no1 [Compound 15b, 4-((3-(2-(2-Hydroxybenzylidene)hydrazineyl)-3-oxopropyl)amino)-N-(5-methylisoxazol-3-yl)benzene-sulfonamide]
